Laboratory results as given in ChEMBL document CHEMBL1139502, “Oxazine 170 induces DNA:RNA:DNA triplex formation” (J Med Chem, 2005).

Test system: Nucleic Acid
Assay: Apparent binding constant towards calf thymus DNA
Assay type: nucleic-acid assay
Conditions: Bos taurus

K app: 26000 M⁻¹
SMILES: CC/N=c1/cc2oc3cc(NCC)c(C)cc3nc-2c2ccccc12
